Measured values reported in patent US9884868B2, “TGF-beta inhibitors” (Rigel Pharmaceuticals, Inc., priority 2015, dated 2018).

Molecular target: HIS-TGF-βR1 T204D (Homo sapiens (Human), UniProt P36897, T204D)
Assay: HTRF probe displacement assay with HIS-TGF-βR1 T204D
Settings: not given

HIS-TGF-βR1 T204D, sequence (P36897 34-503 T204D): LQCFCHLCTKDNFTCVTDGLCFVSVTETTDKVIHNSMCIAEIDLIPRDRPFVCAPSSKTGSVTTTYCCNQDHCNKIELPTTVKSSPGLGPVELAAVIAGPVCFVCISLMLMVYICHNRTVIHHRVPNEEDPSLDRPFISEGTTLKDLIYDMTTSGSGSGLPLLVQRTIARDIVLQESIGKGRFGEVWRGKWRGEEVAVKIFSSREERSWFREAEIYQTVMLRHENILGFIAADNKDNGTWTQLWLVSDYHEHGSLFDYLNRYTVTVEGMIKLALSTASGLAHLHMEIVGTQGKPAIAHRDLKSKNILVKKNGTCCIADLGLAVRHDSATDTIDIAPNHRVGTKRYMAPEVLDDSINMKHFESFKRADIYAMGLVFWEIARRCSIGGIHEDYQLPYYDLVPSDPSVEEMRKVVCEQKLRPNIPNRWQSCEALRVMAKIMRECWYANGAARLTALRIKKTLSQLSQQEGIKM

IC50	SMILES
6.8 nM	N#Cc1cnc2ccc(-c3c(-c4ccc(F)cc4)ncn3CCC(F)(F)F)nn12 [4′, 6-(4-(4-fluorophenyl)-1-(3,3,3-trifluoropropyl)-1H-imidazol-5-yl)imidazo[1,2-b]pyridazine-3-carbonitrile]
2.6 nM	N#Cc1cnc2ccc(-c3c(-c4ccc(F)c(Cl)c4)ncn3CCC(F)(F)F)nn12 [35′, 6-(4-(3-chloro-4-fluorophenyl)-1-(3,3,3-trifluoropropyl)-1H-imidazol-5-yl)imidazo[1,2-b]pyridazine-3-carbonitrile]

Same assay, conditions: read-out: TGFbr1 IC50; HTRF probe displacement, 1 nM HIS-TGF-βR1 T204D, 1 hour at room temperature

IC50	SMILES
5.5 nM	N#Cc1cnc2ccc(-c3c(-c4ccc(F)cc4)ncn3C3CCC(F)(F)C3)nn12 (centres unmarked) [5′, 6-(1-(3,3-difluorocyclopentyl)-4-(4-fluorophenyl)-1H-imidazol-5-yl)imidazo[1,2-b]pyridazine-3-carbonitrile]
2.4 nM	N#Cc1cnc2ccc(-c3c(-c4ccc(F)cc4)ncn3C3CC3)nn12 [7′, 6-(1-cyclopropyl-4-(4-fluorophenyl)-1H-imidazol-5-yl)imidazo[1,2-b]pyridazine-3-carbonitrile]
1.9 nM	N#Cc1cnc2ccc(-c3c(-c4ccc(F)cc4)ncn3CCF)nn12 [9′, 6-(1-(2-fluoroethyl)-4-(4-fluorophenyl)-1H-imidazol-5-yl)imidazo[1,2-b]pyridazine-3-carbonitrile]
2.5 nM	CCn1cnc(-c2ccc(F)cc2)c1-c1ccc2ncc(C#N)n2n1 [10′, 6-(1-ethyl-4-(4-fluorophenyl)-1H-imidazol-5-yl)imidazo[1,2-b]pyridazine-3-carbonitrile]
3 nM	CC(C)OCCn1cnc(-c2ccc(F)cc2)c1-c1ccc2ncc(C#N)n2n1 [11′, 6-(4-(4-fluorophenyl)-1-(2-isopropoxyethyl)-1H-imidazol-5-yl)imidazo[1,2-b]pyridazine-3-carbonitrile]
2.1 nM	CC(C)(O)CCn1cnc(-c2ccc(F)cc2)c1-c1ccc2ncc(C#N)n2n1 [12′, 6-(4-(4-fluorophenyl)-1-(3-hydroxy-3-methylbutyl)-1H-imidazol-5-yl)imidazo[1,2-b]pyridazine-3-carbonitrile]
17 nM	N#Cc1cnc2ccc(-c3c(-c4ccc(F)cc4)ncn3C3COC3)nn12 [13′, 6-(4-(4-fluorophenyl)-1-(oxetan-3-yl)-1H-imidazol-5-yl)imidazo[1,2-b]pyridazine-3-carbonitrile]
2 nM	N#Cc1cnc2ccc(-c3c(-c4ccc(F)cc4)ncn3CCCO)nn12 [15′, 6-(4-(4-fluorophenyl)-1-(3-hydroxypropyl)-1H-imidazol-5-yl)imidazo[1,2-b]pyridazine-3-carbonitrile]
10.5 nM	N#Cc1cnc2ccc(-c3[nH]cnc3-c3ccc(F)cc3)nn12 [18′, 6-(4-(4-fluorophenyl)-1H-imidazol-5-yl)imidazo[1,2-b]pyridazine-3-carbonitrile]
9.9 nM	Cn1cnc(-c2ccc(F)cc2)c1-c1ccc2ncc(C#N)n2n1 [19′, 6-(4-(4-fluorophenyl)-1-methyl-1H-imidazol-5-yl)imidazo[1,2-b]pyridazine-3-carbonitrile]
2.2 nM	N#Cc1cnc2ccc(-c3c(-c4ccc(F)cc4)ncn3CCC(F)F)nn12 [20′, 6-(1-(3,3-difluoropropyl)-4-(4-fluorophenyl)-1H-imidazol-5-yl)imidazo[1,2-b]pyridazine-3-carbonitrile]
1.9 nM	N#Cc1cnc2ccc(-c3c(-c4ccc(F)cc4)ncn3CCCF)nn12 [21′, 6-(4-(4-fluorophenyl)-1-(3-fluoropropyl)-1H-imidazol-5-yl)imidazo[1,2-b]pyridazine-3-carbonitrile]
1.2 nM	CC(F)(F)Cn1cnc(-c2ccc(F)cc2)c1-c1ccc2ncc(C#N)n2n1 [22′, 6-(1-(2,2-difluoropropyl)-4-(4-fluorophenyl)-1H-imidazol-5-yl)imidazo[1,2-b]pyridazine-3-carbonitrile]
1.9 nM	CC(C)(F)Cn1cnc(-c2ccc(F)cc2)c1-c1ccc2ncc(C#N)n2n1 [23′, 6-(1-(2-fluoro-2-methylpropyl)-4-(4-fluorophenyl)-1H-imidazol-5-yl)imidazo[1,2-b]pyridazine-3-carbonitrile]
0.4 nM	CC(C)n1cnc(-c2ccc(F)cc2)c1-c1ccc2ncc(C#N)n2n1 [24′, 6-(4-(4-fluorophenyl)-1-isopropyl-1H-imidazol-5-yl)imidazo[1,2-b]pyridazine-3-carbonitrile]
2.6 nM	N#Cc1cnc2ccc(-c3c(-c4ccc(F)cc4)ncn3C34CC(C3)C4)nn12 [25′, 6-(1-(bicyclo[1.1.1]pentan-1-yl)-4-(4-fluorophenyl)-1H-imidazol-5-yl)imidazo[1,2-b]pyridazine-3-carbonitrile]
92.6 nM	CC(C)(O)Cn1cnc(-c2ccc(F)cc2)c1-c1ccc2ncc(C#N)n2n1 [26′, 6-(4-(4-fluorophenyl)-1-(2-hydroxy-2-methylpropyl)-1H-imidazol-5-yl)imidazo[1,2-b]pyridazine-3-carbonitrile]
0.6 nM	N#Cc1cnc2ccc(-c3c(-c4ccc(F)cc4)ncn3C3CC(CO)C3)nn12 (centres unmarked) [27′, 6-(4-(4-fluorophenyl)-1-(3-(hydroxymethyl)cyclobutyl)-1H-imidazol-5-yl)imidazo[1,2-b]pyridazine-3-carbonitrile]

IC50	SMILES
9.2 nM	CCC(C)(C)n1cnc(-c2ccc(F)cc2)c1-c1ccc2ncc(C#N)n2n1 [30′, 6-(4-(4-fluorophenyl)-1-(tert-pentyl)-1H-imidazol-5-yl)imidazo[1,2-b]pyridazine-3-carbonitrile]
1.9 nM	N#Cc1cnc2ccc(-c3c(-c4ccc(F)cc4)ncn3CC3CCCO3)nn12 (centres unmarked) [31′, 6-(4-(4-fluorophenyl)-1-((tetrahydrofuran-2-yl)methyl)-1H-imidazol-5-yl)imidazo[1,2-b]pyridazine-3-carbonitrile]
1 nM	N#Cc1cnc2ccc(-c3c(-c4ccc(F)c(Cl)c4)ncn3CC(F)F)nn12 [33′, 6-(4-(3-chloro-4-fluorophenyl)-1-(2,2-difluoroethyl)-1H-imidazol-5-yl)imidazo[1,2-b]pyridazine-3-carbonitrile]
0.9 nM	N#Cc1cnc2ccc(-c3c(-c4ccc(F)c(Cl)c4)ncn3CCF)nn12 [34′, 6-(4-(3-chloro-4-fluorophenyl)-1-(2-fluoroethyl)-1H-imidazol-5-yl)imidazo[1,2-b]pyridazine-3-carbonitrile]
1.3 nM	N#Cc1cnc2ccc(-c3c(-c4ccc(F)c(Cl)c4)ncn3C3CC3)nn12 [36′, 6-(4-(3-chloro-4-fluorophenyl)-1-cyclopropyl-1H-imidazol-5-yl)imidazo[1,2-b]pyridazine-3-carbonitrile]
2.5 nM	CC(C)(O)CCn1cnc(-c2ccc(F)c(Cl)c2)c1-c1ccc2ncc(C#N)n2n1 [37′, 6-(4-(3-chloro-4-fluorophenyl)-1-(3-hydroxy-3-methylbutyl)-1H-imidazol-5-yl)imidazo[1,2-b]pyridazine-3-carbonitrile]
1 nM	N#Cc1cnc2ccc(-c3c(-c4ccc(F)c(Cl)c4)ncn3CCCO)nn12 [38′, 6-(4-(3-chloro-4-fluorophenyl)-1-(3-hydroxypropyl)-1H-imidazol-5-yl)imidazo[1,2-b]pyridazine-3-carbonitrile]
0.6 nM	N#Cc1cnc2ccc(-c3c(-c4ccc(F)c(Cl)c4)ncn3CCC3CCC3)nn12 [40′, 6-(4-(3-chloro-4-fluorophenyl)-1-(2-cyclobutylethyl)-1H-imidazol-5-yl)imidazo[1,2-b]pyridazine-3-carbonitrile]
0.9 nM	CC1(n2cnc(-c3ccc(F)c(Cl)c3)c2-c2ccc3ncc(C#N)n3n2)CC1 [41′, 6-(4-(3-chloro-4-fluorophenyl)-1-(1-methylcyclopropyl)-1H-imidazol-5-yl)imidazo[1,2-b]pyridazine-3-carbonitrile]
1.8 nM	N#Cc1cnc2ccc(-c3c(-c4ccc(F)c(Cl)c4)ncn3C[C@@H]3CCCO3)nn12 [42′, (S)-6-(4-(3-chloro-4-fluorophenyl)-1-((tetrahydrofuran-2-yl)methyl)-1H-imidazol-5-yl)imidazo[1,2-b]pyridazine-3-carbonitrile]
2.7 nM	CC1(n2cnc(-c3ccc(F)c(Cl)c3)c2-c2ccc3ncc(C#N)n3n2)COC1 [43′, 6-(4-(3-chloro-4-fluorophenyl)-1-(3-methyloxetan-3-yl)-1H-imidazol-5-yl)imidazo[1,2-b]pyridazine-3-carbonitrile]
1.2 nM	N#Cc1cnc2ccc(-c3c(-c4ccc(F)c(Cl)c4)ncn3CCCCl)nn12 [44′, 6-(4-(3-chloro-4-fluorophenyl)-1-(3-chloropropyl)-1H-imidazol-5-yl)imidazo[1,2-b]pyridazine-3-carbonitrile]
2.3 nM	CC1(Cn2cnc(-c3ccc(F)c(Cl)c3)c2-c2ccc3ncc(C#N)n3n2)COC1 [45′, 6-(4-(3-chloro-4-fluorophenyl)-1-((3-methyloxetan-3-yl)methyl)-1H-imidazol-5-yl)imidazo[1,2-b]pyridazine-3-carbonitrile]
1.5 nM	N#Cc1cnc2ccc(-c3c(-c4ccc(F)c(Cl)c4)ncn3C3CCOC3)nn12 (centres unmarked) [46′, 6-(4-(3-chloro-4-fluorophenyl)-1-(tetrahydrofuran-3-yl)-1H-imidazol-5-yl)imidazo[1,2-b]pyridazine-3-carbonitrile]
1.4 nM	CC(C)CCn1cnc(-c2ccc(F)c(Cl)c2)c1-c1ccc2ncc(C#N)n2n1 [49′, 6-(4-(3-chloro-4-fluorophenyl)-1-isopentyl-1H-imidazol-5-yl)imidazo[1,2-b]pyridazine-3-carbonitrile]
2.3 nM	Cn1cnc(-c2ccc(F)c(Cl)c2)c1-c1ccc2ncc(C#N)n2n1 [50′, 6-(4-(3-chloro-4-fluorophenyl)-1-methyl-1H-imidazol-5-yl)imidazo[1,2-b]pyridazine-3-carbonitrile]
0.6 nM	CC(C)n1cnc(-c2ccc(F)c(Cl)c2)c1-c1ccc2ncc(C#N)n2n1 [51′, 6-(4-(3-chloro-4-fluorophenyl)-1-isopropyl-1H-imidazol-5-yl)imidazo[1,2-b]pyridazine-3-carbonitrile]
0.9 nM	CCn1cnc(-c2ccc(F)c(Cl)c2)c1-c1ccc2ncc(C#N)n2n1 [52′, 6-(4-(3-chloro-4-fluorophenyl)-1-ethyl-1H-imidazol-5-yl)imidazo[1,2-b]pyridazine-3-carbonitrile]
